Reference: paper PMC9990147 (Nature, 2021)
Where a chain is given by its changes, count along the chain named.

How the values were obtained:
[1] = biological target: T1, PCFT (proton-coupled folate transporter, SLC46A1) (Gallus gallus, UniProt F1NJ67); test: cryo-EM structure at […] Å; assay type: cell-based
T1 sequence (F1NJ67 1-473): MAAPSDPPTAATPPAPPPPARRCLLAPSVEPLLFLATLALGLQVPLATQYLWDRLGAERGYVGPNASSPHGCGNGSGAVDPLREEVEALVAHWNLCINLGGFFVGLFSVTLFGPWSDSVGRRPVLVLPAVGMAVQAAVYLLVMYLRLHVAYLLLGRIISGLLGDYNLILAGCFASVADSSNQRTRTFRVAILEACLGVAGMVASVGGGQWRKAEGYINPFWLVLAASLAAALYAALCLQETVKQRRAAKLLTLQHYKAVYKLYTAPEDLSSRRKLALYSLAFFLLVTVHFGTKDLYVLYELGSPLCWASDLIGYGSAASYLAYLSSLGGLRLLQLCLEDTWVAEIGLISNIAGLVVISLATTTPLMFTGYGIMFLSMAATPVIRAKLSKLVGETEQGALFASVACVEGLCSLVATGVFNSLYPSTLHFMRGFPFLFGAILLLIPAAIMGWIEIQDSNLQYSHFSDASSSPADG

[2] = biological target: T2, human PCFT (SLC46A1) (Homo sapiens, UniProt Q96NT5); test: cell-based 3H-folic acid uptake at pH […] and […]
T2 sequence (Q96NT5 1-459): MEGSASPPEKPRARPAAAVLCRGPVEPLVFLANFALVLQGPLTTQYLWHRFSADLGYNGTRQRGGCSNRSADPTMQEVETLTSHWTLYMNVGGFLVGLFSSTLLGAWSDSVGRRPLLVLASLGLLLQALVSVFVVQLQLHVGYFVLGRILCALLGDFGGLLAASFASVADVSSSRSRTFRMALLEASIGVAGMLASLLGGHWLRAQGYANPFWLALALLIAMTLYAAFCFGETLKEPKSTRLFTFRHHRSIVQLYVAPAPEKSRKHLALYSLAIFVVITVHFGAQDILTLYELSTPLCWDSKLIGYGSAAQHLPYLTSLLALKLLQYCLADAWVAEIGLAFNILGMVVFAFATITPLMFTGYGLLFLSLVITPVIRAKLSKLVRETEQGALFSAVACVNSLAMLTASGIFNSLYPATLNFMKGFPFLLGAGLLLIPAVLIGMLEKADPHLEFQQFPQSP

[3] = biological target: T3, biotinylated chicken PCFT with C-terminal Avi-tag (Gallus gallus (UniProt E6Y8U5 sequence), biotin on the C-terminal Avi-tag); test: BLI
T3 chain: T1 sequence (F1NJ67 1-473) with L25P, G392S

Nc1nc2[nH]cc(CCc3ccc(C(=O)N[C@@H](CCC(=O)O)C(=O)O)cc3)c2c(=O)[nH]1 [PMX, pemetrexed]
IC50 [1]: 900 nM

Nc1nc(=O)c2nc(CNc3ccc(C(=O)N[C@@H](CCC(=O)O)C(=O)O)cc3)cnc2[nH]1 [FA, folic acid]
cell-based 3H-folic acid uptake at pH 5.5 and 7.5 [2]: The human and chicken homologues transport similar amounts of folic acid to each other and do so only at acidic pH

B1: PCFT nanobody (high-affinity inhibitory nanobody from a naive llama library) (VHH)
VHH: QVQLVESGGGLVQPGGSLRLSCAASGFTFSRYWMYWVRQAPGKGPEWLSHMNPSGSDIKYTDSVKGRFTISRDNAKNTLYLQMNSLKPDDTAVYYCVADRRALGSPEYWGQGTQVTVSS
Kd [3]: 8 nM
